In patent publication US20260083864A1, “CONTRAST AGENTS FOR USE IN DIAGNOSTIC COMPUTED TOMOGRAPHY IMAGING” (Bayer Aktiengesellschaft, priority 2022, published 2026):
Where two headings read alike, the source gives them in different places.

Tests used:
[1] = tested on: freshly isolated rat hepatocytes; assay: Uptake into freshly isolated rat hepatocytes; conditions: for Inhibition Rifampicine: rat hepatocyte uptake, test item and Rifampicine 1:1, each 100 μM; for Uptake rat hepatocytes: 100 μmol Gd/L, 10 min, 37° C., relative to RC1 (Gd-EOB-DTPA)
[2] = reference compounds, 1.5 T, 37° C., from Rohrer et al.; cited from earlier work
[3] = Partition coefficient (log P butanol/buffer); format: physicochemical; conditions: 1-butanol / 50 mM Tris-HCl, pH 7.4, room temperature
[4] = reference compounds, 1.5 T, 37° C., bovine plasma instead of human plasma, from Rohrer et al.; cited from earlier work
[5] = target: T1, OATP1B1 (Homo sapiens, UniProt Q9Y6L6); assay: Uptake into stable transfected OATP1B1 HEK 293 cells; format: cell-based; conditions: for Uptake into OATP1B1-HEK 293 cells: 40 min incubation, relative to RC1 (Gd-EOB-DTPA); for Inhibition Rifampicine: uptake into OATP1B1-HEK 293 cells
T1 sequence (Q9Y6L6 1-691): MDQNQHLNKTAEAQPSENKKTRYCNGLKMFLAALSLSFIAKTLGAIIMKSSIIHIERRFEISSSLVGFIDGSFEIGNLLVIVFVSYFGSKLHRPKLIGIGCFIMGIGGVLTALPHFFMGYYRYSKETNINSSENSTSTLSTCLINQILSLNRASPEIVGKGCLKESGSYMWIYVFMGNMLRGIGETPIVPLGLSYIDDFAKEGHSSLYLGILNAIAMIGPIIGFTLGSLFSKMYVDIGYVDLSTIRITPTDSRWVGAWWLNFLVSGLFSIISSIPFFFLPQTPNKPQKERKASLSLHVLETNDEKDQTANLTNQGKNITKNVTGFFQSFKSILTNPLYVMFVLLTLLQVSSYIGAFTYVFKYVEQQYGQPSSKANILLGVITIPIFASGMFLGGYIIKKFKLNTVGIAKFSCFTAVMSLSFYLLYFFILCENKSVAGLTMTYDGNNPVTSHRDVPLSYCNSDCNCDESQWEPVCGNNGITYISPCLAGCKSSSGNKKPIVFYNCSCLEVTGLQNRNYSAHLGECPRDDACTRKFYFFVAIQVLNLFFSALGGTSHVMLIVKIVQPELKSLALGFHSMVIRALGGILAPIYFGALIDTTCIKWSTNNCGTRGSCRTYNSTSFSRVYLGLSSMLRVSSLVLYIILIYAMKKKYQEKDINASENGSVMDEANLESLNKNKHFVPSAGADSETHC
In short: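 Uptake measured in triplicate after a 40 min, unshaken exposure of OATP1B1-expressing HEK293 cells to 100 µM (final) compound in transport buffer. Cold PBS wash stopped uptake; Gd-EOB-DTPA served as reference standard within each plate.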

[6] = target: T2, OATP1B3 (Homo sapiens, UniProt Q9NPD5); assay: Uptake into stable transfected OATP1B3 HEK 293 cells; format: cell-based; conditions: for Uptake into OATP1B3-HEK 293 cells: 40 min incubation, relative to RC1 (Gd-EOB-DTPA); for Inhibition Rifampicine: uptake into OATP1B3-HEK 293 cells
T2 sequence (Q9NPD5 1-702): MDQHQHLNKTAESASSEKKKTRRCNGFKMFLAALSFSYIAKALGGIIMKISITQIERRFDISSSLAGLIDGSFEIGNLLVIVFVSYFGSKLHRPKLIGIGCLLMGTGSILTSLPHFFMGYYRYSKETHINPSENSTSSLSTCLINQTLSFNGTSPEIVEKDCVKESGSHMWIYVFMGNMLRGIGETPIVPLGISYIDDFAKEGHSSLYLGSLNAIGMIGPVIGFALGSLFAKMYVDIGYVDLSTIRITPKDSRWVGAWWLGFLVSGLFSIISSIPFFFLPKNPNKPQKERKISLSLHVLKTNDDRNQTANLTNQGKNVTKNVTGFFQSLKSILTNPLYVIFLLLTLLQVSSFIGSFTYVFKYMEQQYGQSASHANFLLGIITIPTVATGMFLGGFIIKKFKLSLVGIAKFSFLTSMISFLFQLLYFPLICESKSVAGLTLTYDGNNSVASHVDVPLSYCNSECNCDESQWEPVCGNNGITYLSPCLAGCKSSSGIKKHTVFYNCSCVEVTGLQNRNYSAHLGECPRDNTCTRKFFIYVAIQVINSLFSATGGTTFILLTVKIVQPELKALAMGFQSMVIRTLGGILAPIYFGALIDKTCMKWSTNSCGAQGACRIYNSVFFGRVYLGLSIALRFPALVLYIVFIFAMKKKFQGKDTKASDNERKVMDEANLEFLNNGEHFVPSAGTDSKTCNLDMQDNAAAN
In short: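 HEK 293 cells stably transfected with human OATP1B3 were incubated for 40 min with test items at 100 μM final in transport buffer, in triplicate, then washed with cold PBS. Gadoxetate (Gd-EOB-DTPA) served as the reference standard on the same plate.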

[7] = Relaxivity measurements at 1.41 T in water; format: physicochemical; conditions: 37° C., normalized to Gd
In short: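 T1 by inversion recovery and T2 by CPMG at 1.41 T (60 MHz), 37° C, relaxation delay ≥5×T1. Three Gd concentrations between 0.05 and 2 mM; relaxivities derived from measured relaxation rates in water.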

[8] = Relaxivity measurements at 1.41 T in human plasma; format: physicochemical; conditions: 37° C., normalized to Gd
In short: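 T1 determined by inversion recovery (8 inversion-time steps) and T2 by CPMG sequence, both with relaxation delay ≥5×T1. Each relaxivity used three Gd concentrations between 0.05 and 2 mM. Relaxivities were derived from relaxation rates measured in water and plasma.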

[9] = Water solubility in aqueous buffer; conditions: aqueous buffer 10 mM Tris-HCl, pH 7.4, 20° C.
Method: The solid compounds were added stepwise to the buffer solution. More substance is added once all the suspended material is dissolved until an equilibrium between undissolved and dissolved substance is reached. The suspension was mixed using a shaker (Heidolph Reax 2000) and treated 5 min in an ultrasound bath (Bandelin, Sonorex Super RK255H).

[10] = Complex stability (transmetallation) against Zn2+ in phosphate buffer; conditions: 72 hours, 2.5 mM Zn^2+, 26 mM phosphate buffer, 37° C., pH 7.4
Source text: If test compounds are instable under these conditions, transmetallation during this test would lead to the formation of the Zn^2+ complex of the test item, while Gd^3+ is released and precipitated as highly insoluble GdPO4.

[11] = of the administered dose, literature; cited from earlier work

SMILES	Inhibition Rifampicine [1]	r1 water [2]	Log P (partition coefficient butanol/buffer) [3]	r1 plasma (r1 human plasma) [4]	Uptake into OATP1B1-HEK 293 cells [5]	Inhibition Rifampicine [5]	Uptake rat hepatocytes [1]	Uptake into OATP1B3-HEK 293 cells [6]	Inhibition Rifampicine [6]	r1 water [7]	r1 human plasma [8]	Solubility [9]	Transmetallation stability [10]	Secreted / excreted into the bile [11]
O=C([O-])CN1CCN(CC(=O)[O-])CCN([C@H](CO)[C@H](O)CO)CCN(CC(=O)[O-])CC1.[Gd+3] (racemic) [RC3, gadobutrol, reference compound]	0 % inhibition	3.3 L/mmol/s	−2.22	5.2 L/mmol/s	–	–	–	–	–	–	–	–	–	–
CCOCCOc1ccc(CC(C(=O)O)N2CCN(CC(=O)[O-])CCN(C(COC)C(=O)[O-])CCN(CC(=O)[O-])CC2)cc1.[Gd+3] (stereo not drawn) [Example 38, gadolinium 2-[7-{1-carboxy-2-[4-(2-ethoxyethoxy)phenyl]ethyl}-4,10-bis(carboxylatomethyl)-1,4,7,10-tetraazacyclododecan-1-yl]-3-methoxypropanoate]	94 % inhibition	–	−1.41	–	137 % of RC1	65 % inhibition	62 % of RC1	24 % of RC1	94 % inhibition	5.6 L/mmol/s	7.5 L/mmol/s	>103 mM	97%	–
CCOCCOCCOc1ccc(CC(C(=O)[O-])N2CCN(CC(=O)[O-])CCN(C(CC)C(=O)O)CCN(CC(=O)[O-])CC2)cc1.[Gd+3] (stereo not drawn) [Example 43, gadolinium-2-{4,10-bis(carboxylatomethyl)-7-[1-carboxypropyl]-1,4,7,10-tetraazacyclododecan-1-yl}-3-{4-[2-(2-ethoxyethoxy)ethoxy]phenyl}propanoate]	97 % inhibition	–	−1.19	–	122 % of RC1	62 % inhibition	90 % of RC1	111 % of RC1	99 % inhibition	4.8 L/mmol/s	6.9 L/mmol/s	>209 mM	102%	–
COCC(C(=O)O)N1CCN(CC(=O)[O-])CCN(C(Cc2ccc(OCC(F)(F)C(F)F)cc2)C(=O)[O-])CCN(CC(=O)[O-])CC1.[Gd+3] (stereo not drawn) [Example 45, gadolinium-2-{4,10-bis(carboxylatomethyl)-7-[1-carboxy-2-methoxyethyl]-1,4,7,10-tetraazacyclododecan-1-yl}-3-[4-(2,2,3,3-tetrafluoropropoxy)phenyl]propanoate]	82 % inhibition	–	−0.36	–	492 % of RC1	95 % inhibition	68 % of RC1	106 % of RC1	98 % inhibition	4.5 L/mmol/s	11.4 L/mmol/s	>63 mM	100%	–
O=C([O-])CN1CCN(CC(=O)[O-])CCN(C(Cc2ccc(OCC(F)(F)C(F)F)cc2)C(=O)O)CCN(CC(=O)[O-])CC1.[Gd+3] (stereo not drawn) [Example 46, gadolinium 2,2′,2″-(10-{1-carboxy-2-[4-(2,2,3,3-tetrafluoropropoxy)phenyl]ethyl}-1,4,7,10-tetraazacyclododecane-1,4,7-triyl)triacetate]	90 % inhibition	–	−0.57	–	356 % of RC1	95 % inhibition	106 % of RC1	43 % of RC1	97 % inhibition	3.5 L/mmol/s	10.8 L/mmol/s	>263 mM	101%	–
O=C([O-])CN(CCN(CC(=O)[O-])CC(=O)[O-])CCN(CC(=O)[O-])C(COCc1ccccc1)C(=O)[O-].[Gd+3].[H+].[H+] (stereo not drawn) [Gd-BOPTA, gadobenic acid]	–	–	–	–	–	–	–	–	–	–	–	–	–	3-to-5%
CCOc1ccc(C[C@@H](CN(CCN(CC(=O)[O-])CC(=O)[O-])CC(=O)[O-])N(CC(=O)[O-])CC(=O)[O-])cc1.[Gd+3].[H+].[H+] [Gd-EOB-DTPA, gadoxetic acid]	–	–	–	–	–	–	–	–	–	–	–	–	–	up to 50%
O=C([O-])CN(CCN(CC(=O)[O-])CC(=O)[O-])CCN(CC(=O)[O-])C(COCc1ccccc1)C(=O)[O-].[Gd+3].[H+].[H+] (stereo not drawn) [RC2, gadobenic acid, reference compound]	79 % inhibition	3.3 L/mmol/s	−2.07	4.1 L/mmol/s	31 % of RC1	61 % inhibition	9 % of RC1	4 % of RC1	87 % inhibition	–	–	–	14%	–
